Measured values published in patent US20260138976A1 (Hoffmann-La Roche Inc., priority 2022, published 2026).
Several values for one entry are separate records, joined by “and”; a condition that tells them apart may be missing. Equal entries are not always repeated.

Assays:
[1] = target: T1, DGKζ (hDGKzeta(1-928)-N-His) (Homo sapiens, UniProt Q13574); test: In vitro DGK inhibition assay, DGKzeta ADP Glo (in house); type: biochemical; conditions: 2 nM DGKζ, 50 μM ATP, 125 uM DLG in liposomes, 1 hour reaction
T1 construct: hDGKzeta(1-928)-N-His; His (N); made in house; host or cells: Sf21 insect cells (baculovirus)
Protocol: DGKα and ζ kinases use ATP to phosphorylate the substrate 1,2-dilauroyl-sn-glycerol (DLG, incorporated in the liposomes). ATP is converted to ADP as a result of this enzymatic reaction. After the kinase reaction, an ATP-depletion reagent is added to terminate the kinase reaction and deplete any remaining ATP, leaving only ADP. Second, a detection reagent is added to simultaneously convert ADP to ATP and allow the newly synthesized ATP to be converted to light using a coupled luciferase/luciferin reaction.
Full length DGKα and ζ were expressed in Sf21 insect cells by infecting the cells with the baculovirus stock at MOI of 2. Purification of both enzymes was performed as previously described by Takahashi et al., PeerJ, 2018 (Takahashi, D.; Sakane, F. Expression and purification of human diacylglycerol 5 kinase alpha from baculovirus-infected insect cells for structural studies. PeerJ2018, 6, No. e5449).
A concentrated liposome solution was prepared in assay buffer without DTT and BSA: 2 mM of DLG in 21 mM of total liposome (2 mM DLG/8 mM PS/11 mM PC). The reaction mixtures contain the assay buffer with a final DLG concentration of 125 uM ATP concentrations of 25 μM (for DGKA assay) or 50 μM (for DGKZ assay). The reactions were started by addition of DGK α and ζ kinases at 4 nM and 2 nM final concentrations, respectively. After 1 hour reaction, the amount of ADP formed was detected with the ADP-Glo kinase assay (Promega) according to the manufacturer instructions. Compounds were added in 11-points dose response, starting at […], 1:3 dilutions, with a final DMSO concentration of 2%. The multidrop combi was used as a liquid handler and luminescence was read with 0.5 s by the envision reader (PE).

primary human T-cells [2] = test: IL2 secretion measurements (24 h, CD3-stimulated T-cells, PBS counter screen); type: cell-based; conditions: for EC50: CD3-stimulated primary human T-cells, IL2 secretion, fitted sigmoidal curve, read-out: Tcell IL2 CD3 EC50; for Emax IL2 (% activation): CD3 condition, normalised to DMSO (neutral) and 20 μM reference compound A1 = 100%
Protocol: (§1) As readouts for T-cell activation, 1L2 secretion after 24 hours and proliferation after 5 days was measured. Increases in IL2 secretion and proliferation upon compound treatment were assessed as the % of the maximum of reference compound A1. WO 2016/139181 discloses reference compound A1 as example 70. As a counter screen and to make sure that no unwanted TCR-independent activation was triggered, PBS conditions were run for all compounds.
Expanded primary human T-cells were thawed and cultured in RPMI 1640 (Gibco, #61870-010)+5% human serum (HS, Sigma, #H3667)+1 mM Sodium Pyruvate (Gibco, #11360-039)+50 μM 2-mercaptoethanol (Gibco, #31350-010) and 1× Pen-Strep (Life Technologies, #15140122) medium at density of 2 Mio/ml for 3 hours in 5% CO2, 37° C. and 95% humidity. For coating of plates, […] or PBS++ with CD3 antibody (concentration depending on donor and determined by CD3 titrations) was added 100 μl/well to Poly-D Lysine coated 96-well plates. Plates were sealed and incubated at room temperature for 3 hours on a table-top rocking platform. After incubation, plates were washed once with PBS−− and filled with 40 μl/well culture medium only. Compounds were then added (see next section) to medium only plates. After 3 hours of culturing the T-cells, cells were filtered through a cell strainer (Miltenyi Biotech, #130-041-407), counted again and concentration was adjusted to 1.25 Mio/ml.
Cells were then seeded 80 μl/well to the 40 μl/well including dispensed compounds according to plate layout. By adding cells, compounds were further diluted 1:3, and resulting in 100 k cells/120 μl/well. After 24 hours 40 μl of supernatant was collected carefully from the top while not disturbing the cells and transferred into a round bottom 96 well plate. Collected and frozen supernatant was used for detection of IL2 using the IL-2 Human ProQuantum Immunoassay Kit (Invitrogen) or using the Human IL-2 ELISA Kit (Thermo Fisher).
(§2) Compounds were added in a 5 or 6 pt dose response with the Tecan D300e Digital Dispenser, all conditions 3 times more concentrated than the end-concentration, since cells are added afterwards (80 μl cells to 40 μl prepared medium with treatment). The DR was starting at 20 μM or 10 μM final top concentration and a dilution factor of 3.333. The positive control was the reference compound A1 that was added in a dose response as well, additionally to 3 wells of only 20 μM representing the positive stimulator control. All wells were normalized with DMSO to a final concentration of 0.6% (0.2% end-concentration).
The immunoassay is done following the manufacturer's manual (Invitrogen, #A35603). Additional information: For the immunoassay, MicroAmp™ EnduraPlate™ Optical 384-Well plates are used. Frozen supernatant is thawed and centrifuged for 5 minutes at 1000×g, both steps at 4° C. After centrifugation, required sample amount is taken from the top, and in a separate LightCycler V-bottom plate (working plate) diluted with assay dilution buffer, dilution factor depending on the PBS or CD3 condition but at least 1:3. IL-2 standard and blanks are prepared in the same V-bottom plate, standard with a range of 0.0128-5000 pg/ml (extended version). After preparation, 5 μl of sample dilutions or standard/blanks are transferred to the optical 384-well plate (assay plate) and the 10 μl reaction protocol is being followed. For measurement, the QuantStudio 12K Flex system is used. Raw data is extracted and IL-2 concentrations are calculated with the Thermo Fisher online app (apps.thermofisher.com/apps/proquantum).
ELISA is done following the manufacturer's manual (Thermo Fisher Scientific, #88-7025-88). Additional information: For the ELISA Nunc MaxiSorp 96 well plates are used. Frozen supernatant is thawed and centrifuged for 5 minutes at 1000×g, both steps at 4° C. […]

primary human T-cells [3] = test: Proliferation assay (5 days, CellTiter-Glo, CD3-stimulated T-cells); type: cell-based; conditions: for EC50: CD3-stimulated primary human T-cells, 5 days, CellTiter-Glo, fitted sigmoidal curve, read-out: Tcell Proliferation CD3 EC50; for Emax proliferation (% activation): CD3 condition, normalised to DMSO (neutral) and 20 μM reference compound A1 = 100%
Protocol: as §1
Expanded primary human T-cells are thawed and cultured in RPMI 1640 (Gibco, #61870-010)+5% human serum (HS, Sigma, #H3667)+1 mM Sodium Pyruvate (Gibco, #11360-039)+50 μM 2-mercaptoethanol (Gibco, #31350-010) and 1× Pen-Strep (Life Technologies, #15140122) medium at density of 2 Mio/ml for 3 hours in 5% CO2, 37° C. and 95% humidity. For coating of plates, PBS++ only or PBS++ with CD3 antibody (concentration depending on donor and determined by CD3 titrations) is added 100 μl/well to Poly-D Lysine coated 96-well plates. Plates are sealed and incubated at room temperature for 3 hours on a table-top rocking platform. After incubation, plates are washed once with PBS−− and filled with 40 μl/well culture medium only. Compounds are then added (see next section) to medium only plates. After 3 hours of culturing the T-cells, cells are filtered through a cell strainer (Miltenyi Biotech, #130-041-407), counted again and concentration is adjusted to 1.25 Mio/ml.
Cells are then seeded 80 μl/well to the 40 μl/well including dispensed compounds according to plate layout. By adding cells, compounds are further diluted 1:3, and resulting in 100 k cells/120 μl/well. After 48 hours 40 μl of supernatant is collected carefully from the top while not disturbing the cells. Cells are assessed for proliferation 5 days later by measuring […] using CellTiterGlo (Promega).
as §2
After 5 days, for detection of ATP which is directly proportional to the number of cells present per well, the CellTiter-Glo® 2.0 Reagent is used. After visual control for toxicity or precipitations of the tested compounds, the plates are equilibrated to room temperature for 45 minutes. CellTiter-Glo® 2.0 Reagent is equilibrated to room temperature as well. After equilibration, an equal amount of CellTiter-Glo reagent is added to the cells (80 μl/well) with an electronic multichannel pipette. Plates are placed on a rocking platform for 15 minutes at room temperature. After incubation, the bottom of the plates is sealed with backing tape. Luminescence is measured with PHERAstar FSX (interval time 0.5 sec, gain 3000, focal height 15 mm) and exported as CSV file for analysis in Genedata screener.
CD3 and PBS plates were analysed separately in Genedata Screener using Roche Normalization PCT_POS_CTRL with DMSO set as Neutral Control and 20 μM of the reference compound A1 set as Stimulator Control/100%.
For CD3 conditions EC50 and Emax of the fitted sigmoidal curve were reported. If no curve could be fitted, the EC50 was reported as blank field and the Emax was based on individual data points. […] Compounds which activate unstimulated cells (see IL2 measurements) or compounds which negatively affected viability were flagged.

T1 sequence (Q13574 whole entry): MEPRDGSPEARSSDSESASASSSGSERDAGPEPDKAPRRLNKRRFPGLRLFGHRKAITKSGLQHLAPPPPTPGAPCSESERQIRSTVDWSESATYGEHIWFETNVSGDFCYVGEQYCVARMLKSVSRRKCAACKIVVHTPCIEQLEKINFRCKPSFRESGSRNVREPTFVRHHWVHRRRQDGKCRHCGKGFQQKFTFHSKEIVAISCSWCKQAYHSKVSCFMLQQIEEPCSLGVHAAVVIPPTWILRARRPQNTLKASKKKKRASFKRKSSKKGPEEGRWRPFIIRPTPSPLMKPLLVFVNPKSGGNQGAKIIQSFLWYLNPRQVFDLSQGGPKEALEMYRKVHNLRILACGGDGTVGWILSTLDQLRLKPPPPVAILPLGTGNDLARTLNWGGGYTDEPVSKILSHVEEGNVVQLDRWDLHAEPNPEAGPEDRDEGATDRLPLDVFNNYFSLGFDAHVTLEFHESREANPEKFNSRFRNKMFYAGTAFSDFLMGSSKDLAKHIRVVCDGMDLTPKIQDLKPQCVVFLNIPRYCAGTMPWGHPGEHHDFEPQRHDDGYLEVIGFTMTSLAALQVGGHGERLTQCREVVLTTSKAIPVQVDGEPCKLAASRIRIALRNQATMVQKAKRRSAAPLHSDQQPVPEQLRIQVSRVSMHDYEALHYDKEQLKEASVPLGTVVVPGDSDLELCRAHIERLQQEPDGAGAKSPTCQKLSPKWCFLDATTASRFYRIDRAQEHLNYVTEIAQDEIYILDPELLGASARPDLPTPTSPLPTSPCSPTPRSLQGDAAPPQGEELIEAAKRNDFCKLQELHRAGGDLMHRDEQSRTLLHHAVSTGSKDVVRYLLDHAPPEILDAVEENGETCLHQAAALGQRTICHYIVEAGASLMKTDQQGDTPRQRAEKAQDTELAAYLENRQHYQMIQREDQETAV

IC50 [1]	Structure (SMILES)	EC50 (primary human T-cells [2]) [µM]	Emax IL2 (% activation) (primary human T-cells [2])	EC50 (primary human T-cells [3]) [µM]	Emax proliferation (% activation) (primary human T-cells [3])	EC50 (primary human T-cells [2]; Homo sapiens, T-cell) [µM]	EC50 (primary human T-cells [3]; Homo sapiens, T-cell, 120 h) [µM]
0.467 µM and 3.21 µM	COc1ccc(-c2ccc(CN3C(=O)[C@@H](N)CS(=O)(=O)c4ccc(-c5nnc(C(C)(C)C#N)o5)cc43)cc2)cc1 [Example 45, 2-[5-[(3R)-3-amino-5-[[4-(4-methoxyphenyl)phenyl]methyl]-1,1,4-trioxo-2,3-dihydro-1λ^6,5-benzothiazepin-7-yl]-1,3,4-oxadiazol-2-yl]-2-methyl-propanenitrile]						
	COC(=O)N1CC2CC(c3nnc(-c4ccc5c(c4)N(Cc4ccc(-c6noc(C(F)(F)F)n6)cc4)C(=O)[C@@H](N)CS5(=O)=O)o3)(C2)C1 [Example 61, methyl 1-[5-[(3R)-3-amino-1,1,4-trioxo-5-[[4-[5-(trifluoromethyl)-1,2,4-oxadiazol-3-yl]phenyl]methyl]-2,3-dihydro-1λ^6,5-benzothiazepin-7-yl]-1,3,4-oxadiazol-2-yl]-3-azabicyclo[3.1.1]heptane-3-carboxylate]	0.606	241	0.216	228		
	COC(F)(c1nnc(-c2ccc3c(c2)N(Cc2ccc(-c4nnc(C(F)(F)F)o4)cc2)C(=O)[C@@H](N)CS3(=O)=O)o1)C(F)(F)F (stereo partly drawn) [Example 67, (3R)-3-amino-1,1-dioxo-7-[5-(1,2,2,2-tetrafluoro-1-methoxy-ethyl)-1,3,4-oxadiazol-2-yl]-5-[[4-[5-(trifluoromethyl)-1,3,4-oxadiazol-2-yl]phenyl]methyl]-2,3-dihydro-1λ^6,5-benzothiazepin-4-one]		168		119	0.739	0.262
	N[C@H]1CS(=O)(=O)c2ccc(-c3nnc(N4CCC(F)(F)CC4)o3)cc2N(Cc2ccc(-c3noc(C4CC4)n3)cc2)C1=O [Example 69, (3R)-3-amino-5-[[4-(5-cyclopropyl-1,2,4-oxadiazol-3-yl)phenyl]methyl]-7-[5-(4,4-difluoro-1-piperidyl)-1,3,4-oxadiazol-2-yl]-1,1-dioxo-2,3-dihydro-1λ^6,5-benzothiazepin-4-one]		83		125	0.448	0.409
	N[C@H]1CS(=O)(=O)c2ccc(-c3nnc(N4CCC(F)(F)CC4)o3)cc2N(Cc2ccc(-c3nnc(C(F)F)o3)cc2)C1=O [Example 70, (3R)-3-amino-5-[[4-[5-(difluoromethyl)-1,3,4-oxadiazol-2-yl]phenyl]methyl]-7-[5-(4,4-difluoro-1-piperidyl)-1,3,4-oxadiazol-2-yl]-1,1-dioxo-2,3-dihydro-1λ^6,5-benzothiazepin-4-one]		43		76	> 10	2.76
	N[C@H]1CS(=O)(=O)c2ccc(-c3nnc(N4CCOC(F)(F)C4)o3)cc2N(Cc2ccc(-c3nnc(C(F)F)o3)cc2)C1=O [Example 82, (3R)-3-amino-5-[[4-[5-(difluoromethyl)-1,3,4-oxadiazol-2-yl]phenyl]methyl]-7-[5-(2,2-difluoromorpholin-4-yl)-1,3,4-oxadiazol-2-yl]-1,1-dioxo-2,3-dihydro-1λ^6,5-benzothiazepin-4-one]		25		78	> 10	6.12
	NC(c1nnc(-c2ccc3c(c2)N(Cc2ccc(-c4ccc(C(F)(F)F)cc4)cc2)C(=O)[C@@H](N)CS3(=O)=O)o1)C(F)(F)F (stereo partly drawn) [Example 151, (3R)-3-amino-7-[5-(1-amino-2,2,2-trifluoro-ethyl)-1,3,4-oxadiazol-2-yl]-1,1-dioxo-5-[4-[4-(trifluoromethyl)phenyl]phenyl] methyl 1-2,3-dihydro-1λ^6,5-benzothiazepin-4-one]		65		105	0.903	1.85
